Data as given in PMC5971037, “Synthesis and evaluation of antimicrobial, antitubercular and anticancer activities of 2-(1-benzoyl-1H-benzo[d]imidazol-2-ylthio)-N-substituted acetamides” (Chemistry Central Journal, 2018).
≈ marks a conversion by molar mass, not a printed value. Where two headings read alike, the source gives them in different places.

Legend:
C. albicans [1] = test: MFC by subculturing; format: cell-based
Method: (§1) The minimum bactericidal concentration (MBC) and minimum fungicidal concentration (MFC) of the synthesized benzimidazole derivatives was determined by subculturing 100 µl of culture from each tube that remained clear in MIC determination onto sterilized petri-plates containing fresh agar medium. The petri-plates were incubated and analyzed for microbial growth visually.

A. niger [2] = test: MFC by subculturing; format: cell-based
Method: as §1

B. subtilis [3] = test: Tube dilution MIC; details: Bacillus subtilis, 24 h, read-out: MIC B. subtilis
[4] = tested on: M. tuberculosis H37Rv (NCFT/TB/537); test: Well diffusion susceptibility test (zone of inhibition); format: cell-based; details: Mycobacterium tuberculosis, 672 h, read-out: Diameter of zone of inhibition against H37Rv (NCFT/TB/537), wells of 8 mm, 50 µg/ml test compound, 25 µg/ml standard drug, 4 weeks, NA = no activity
M. tuberculosis H37Rv [5] = test: MIC by microplate alamar blue assay; format: cell-based; details: Mycobacterium tuberculosis, NA = no activity, read-out: MIC against M. tuberculosis H37Rv
S. typhi [6] = test: Tube dilution MIC; format: cell-based; details: Salmonella enterica, 24 h, read-out: MIC S. typhi
S. aureus [7] = test: Tube dilution MIC; details: Staphylococcus aureus, 24 h, read-out: MIC S. aureus
[8] = In vivo LD50, ED50 and toxic dose in mice models; details: mouse, dose that killed 50% of the mice population within the group
Method: The LD50 and ED50 were determined for the active compounds in mice models infected with Mycobacterium H37Rv (Table 4). […] Thus, ED50 of 1.34 mg/kg was considered safe for each of the compounds. It was observed that this dose was effective and safe for mice in different groups before infecting the mice models with specific TB bacteria as no mortality of any single animal was recorded.
The LD50 (lethal dose) and ED50 (optimum/effective dose) doses were determined for the active compounds in mice models infected with Mycobacterium H37Rv via ethical permission no., NCFT/EC/16/2313 assigned to Collaborative Research Group (CRG), NCFT, New Delhi, India.

C. albicans [9] = test: microbe, parasite or virus in culture; details: Candida albicans, 48 h, read-out: MIC C. albicans
[10] = target: mycobacterial isocitrate lyase (Mycobacterium tuberculosis, UniProt P9WKK7); test: Mycobacterial isocitrate lyase (ICL) assay; format: biochemical, M. tuberculosis H37Rv; details: read-out: Percent inhibition of enzyme, M. ICL activity
Method: The compounds found potent in in vivo evaluation were assayed for inhibition of mycobacterial enzymes viz., isocitrate lyase, pantothenate synthetase and chorismate mutase.
Isocitrate lyase activity was assayed according to the protocol reported by Dixon and Kornberg (glyoxylate phenyl hydrazone formation) at 10 μM of the compounds.

B. cereus [11] = test: Tube dilution MIC; details: Bacillus cereus, 24 h, read-out: MIC B. cereus
A. niger [12] = test: microbe, parasite or virus in culture; details: Aspergillus niger, 168 h, read-out: MIC A. niger
[13] = tested on: HCT116 (human colorectal) cell line; test: Sulforhodamine-B (SRB) cytotoxicity assay; format: cell-based
[14] = tested on: MCF7 (human breast cancer) cell line; test: Sulforhodamine-B (SRB) cytotoxicity assay; format: cell-based
M. tuberculosis H37Rv [15] = test: Minimum lethal concentration (MLC); format: cell-based; details: Mycobacterium tuberculosis, NA = no activity, read-out: MLC against M. tuberculosis H37Rv
E. coli [16] = test: MBC by subculturing; format: cell-based; details: Escherichia coli
Method: as §1

S. aureus [17] = test: MBC by subculturing; format: cell-based; details: Staphylococcus aureus
Method: as §1

B. cereus [18] = test: MBC by subculturing; format: cell-based
Method: as §1

S. typhi [19] = test: MBC by subculturing; format: cell-based; details: Salmonella enterica, read-out: MBC S. typhi
Method: as §1

B. subtilis [20] = test: MBC by subculturing; format: cell-based
Method: as §1

E. coli [21] = test: Tube dilution MIC; details: Escherichia coli, 24 h, read-out: MIC E. coli
[22] = tested on: Gram positive as well as Gram negative bacterial species; test: Tube dilution MIC, bacteria overall; format: cell-based
[23] = Candida albicans, read-out: MFC C. albicans
[24] = Aspergillus niger, read-out: MFC A. niger
[25] = Bacillus cereus, read-out: MBC B. cereus
[26] = Bacillus subtilis, read-out: MBC B. subtilis
[27] = Candida albicans; read-out: MFC C. albicans
[28] = Aspergillus niger; read-out: MFC A. niger
[29] = HCT-116, SRB assay, HCT116 cell line, read-out: IC50 HCT116
[30] = SRB assay, MCF7 cell line, read-out: IC50 MCF7
[31] = Bacillus cereus; read-out: MBC B. cereus
[32] = Bacillus subtilis; read-out: MBC B. subtilis

mycobacterial isocitrate lyase, sequence (P9WKK7 whole entry): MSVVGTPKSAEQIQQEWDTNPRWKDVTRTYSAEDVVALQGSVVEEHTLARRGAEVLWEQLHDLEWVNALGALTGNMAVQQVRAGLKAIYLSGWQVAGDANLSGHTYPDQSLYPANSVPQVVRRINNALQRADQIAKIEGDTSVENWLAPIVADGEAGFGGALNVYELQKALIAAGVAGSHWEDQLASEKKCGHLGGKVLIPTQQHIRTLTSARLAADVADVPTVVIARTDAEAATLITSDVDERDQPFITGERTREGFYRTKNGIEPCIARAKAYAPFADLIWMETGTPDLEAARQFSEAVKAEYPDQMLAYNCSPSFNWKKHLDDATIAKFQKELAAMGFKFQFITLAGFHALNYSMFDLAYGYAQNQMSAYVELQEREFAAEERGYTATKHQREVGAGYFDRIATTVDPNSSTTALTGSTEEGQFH

Row | SMILES | MFC (C. albicans [1]; [23]) [µg/mL] | MFC (A. niger [2]; [24]) [µg/mL] | MIC (B. subtilis [3]) [µM] | zone of inhibition at 50 µg/mL [4] [mm] | MIC (M. tuberculosis H37Rv [5]) [µg/mL] | MIC (S. typhi [6]) [µM] | MIC (S. aureus [7]) [µM] | LD50 [8] [mg/kg] | MIC (C. albicans [9]) [µM] | inhibition at 10 µM [10] [%] | MIC (B. cereus [11]) [µM] | MIC (A. niger [12]) [µM] | IC50 ([13]; HCT-116, read-out: IC50 HCT116) [µM] | IC50 ([14]; MCF7, read-out: IC50 MCF7) [µM] | MBC (M. tuberculosis H37Rv [15]) [µg/mL] | MBC (E. coli [16]) [µg/mL] | MBC (S. aureus [17]) [µg/mL] | MBC (B. cereus [18]; [25]) [µg/mL] | MBC (S. typhi [19]) [µg/mL] | MIC (E. coli [21]) [µM] | also measured
1 | O=C(CSc1nc2ccccc2n1C(=O)c1ccccc1)Nc1cccc([N+](=O)[O-])c1 [Compound 10, 2-(1-Benzoyl-1H-benzo[d]imidazol-2-ylthio)-N-(3-nitrophenyl)acetamide] | > 50 | > 50 | 29 (≈ 12.5 µg/mL) | > 20 | 12.5 (≈ 28.9 µM) | 29 (≈ 12.5 µg/mL) | 29 (≈ 12.5 µg/mL) | 1.83 | 15 (≈ 6.49 µg/mL) | 61.2 | 29 (≈ 12.5 µg/mL) | 29 (≈ 12.5 µg/mL) | 5.8 | 78.6 | 25 (≈ 57.8 µM) | > 50 | 50 (≈ 116 µM) | > 50 | 50 (≈ 116 µM) | 29 (≈ 12.5 µg/mL) | MBC (B. subtilis [20]; [26]): 50 µg/mL (≈ 116 µM)
2 | O=C(CSc1nc2ccccc2n1C(=O)c1ccccc1)Nc1ccc(Br)cc1 [Compound 9, 2-(1-Benzoyl-1H-benzo[d]imidazol-2-ylthio)-N-(4-bromophenyl)acetamide] | – | – | 27 (≈ 12.6 µg/mL) | 8 | 17.8 (≈ 38.2 µM) | 27 (≈ 12.6 µg/mL) | 27 (≈ 12.6 µg/mL) | – | 13 (≈ 6.06 µg/mL) | – | 27 (≈ 12.6 µg/mL) | 27 (≈ 12.6 µg/mL) | – | – | 28.1 (≈ 60.3 µM) | > 50 | > 50 | – | 50 (≈ 107 µM) | 27 (≈ 12.6 µg/mL) | MFC (C. albicans [1]; [27]): 50 µg/mL (≈ 107 µM); MFC (A. niger [2]; [28]): > 50 µg/mL; MIC against Gram positive as well as Gram negative bacterial species [22]: 0.027 µM/ml; IC50 [13, 29]: 64.3 µM; IC50 [14, 30]: > 214 µM; MBC (B. cereus [18]; [31]): > 50 µg/mL; MBC (B. subtilis [20]; [32]): > 50 µg/mL
3 | Cc1cccc(C)c1NC(=O)CSc1nc2ccccc2n1C(=O)c1ccccc1 [Compound 13, 2-(1-Benzoyl-1H-benzo[d]imidazol-2-ylthio)-N-(2,6-dimethylphenyl)acetamide] | 25 (≈ 60.2 µM) | > 50 | 30 (≈ 12.5 µg/mL) | > 20 | 12.5 (≈ 30.1 µM) | 30 (≈ 12.5 µg/mL) | 30 (≈ 12.5 µg/mL) | 2.14 | 15 (≈ 6.23 µg/mL) | 56.5 | 30 (≈ 12.5 µg/mL) | 30 (≈ 12.5 µg/mL) | 96.3 | 135 | 25 (≈ 60.2 µM) | 50 (≈ 120 µM) | 50 (≈ 120 µM) | > 50 | > 50 | 30 (≈ 12.5 µg/mL) | MBC (B. subtilis [20]; [26]): > 50 µg/mL
4 | O=C(CSc1nc2ccccc2n1C(=O)c1ccccc1)Nc1ccc(Cl)cc1 [Compound 15, 2-(1-Benzoyl-1H-benzo[d]imidazol-2-ylthio)-N-(4-chlorophenyl)acetamide] | > 50 | > 50 | 30 (≈ 12.7 µg/mL) | > 20 | 12.5 (≈ 29.6 µM) | 59 (≈ 24.9 µg/mL) | 30 (≈ 12.7 µg/mL) | 2.67 | 30 (≈ 12.7 µg/mL) | 61.6 | 30 (≈ 12.7 µg/mL) | 30 (≈ 12.7 µg/mL) | 59.4 | 95 | 25 (≈ 59.3 µM) | 50 (≈ 119 µM) | 50 (≈ 119 µM) | > 50 | > 50 | 30 (≈ 12.7 µg/mL) | MBC (B. subtilis [20]; [26]): > 50 µg/mL
5 | O=C(CSc1nc2ccccc2n1C(=O)c1ccccc1)Nc1ccccc1Br [Compound 7, 2-(1-Benzoyl-1H-benzo[d]imidazol-2-ylthio)-N-(2-bromophenyl)acetamide] | – | – | 27 (≈ 12.6 µg/mL) | 10 | 15 (≈ 32.2 µM) | 27 (≈ 12.6 µg/mL) | 27 (≈ 12.6 µg/mL) | – | 27 (≈ 12.6 µg/mL) | – | 27 (≈ 12.6 µg/mL) | 27 (≈ 12.6 µg/mL) | – | – | 28 (≈ 60 µM) | 50 (≈ 107 µM) | 50 (≈ 107 µM) | – | > 50 | 27 (≈ 12.6 µg/mL) | MFC (C. albicans [1]; [27]): 50 µg/mL (≈ 107 µM); MFC (A. niger [2]; [28]): > 50 µg/mL; MIC against Gram positive as well as Gram negative bacterial species [22]: 0.027 µM/ml; IC50 [13, 29]: 96.5 µM; IC50 [14, 30]: 55.8 µM; MBC (B. cereus [18]; [31]): > 50 µg/mL; MBC (B. subtilis [20]; [32]): > 50 µg/mL
6 | O=C(CSc1nc2ccccc2n1C(=O)c1ccccc1)Nc1ccccc1 [Compound 1] | 50 (≈ 129 µM) | > 50 | 32 (≈ 12.4 µg/mL) | > 20 | 12.5 (≈ 32.3 µM) | 32 (≈ 12.4 µg/mL) | 32 (≈ 12.4 µg/mL) | 1.83 | 32 (≈ 12.4 µg/mL) | 62.2 | 32 (≈ 12.4 µg/mL) | 32 (≈ 12.4 µg/mL) | > 258 | 77.4 | 25 (≈ 64.5 µM) | 50 (≈ 129 µM) | 50 (≈ 129 µM) | > 50 | 50 (≈ 129 µM) | 32 (≈ 12.4 µg/mL) | MBC (B. subtilis [20]; [26]): > 50 µg/mL
7 | O=C(CSc1nc2ccccc2n1C(=O)c1ccccc1)Nc1ccc(F)cc1 [Compound 3, 2-(1-Benzoyl-1H-benzo[d]imidazol-2-ylthio)-N-(4-fluorophenyl)acetamide] | 25 (≈ 61.7 µM) | > 50 | 31 (≈ 12.6 µg/mL) | > 20 | 12.5 (≈ 30.8 µM) | 31 (≈ 12.6 µg/mL) | 31 (≈ 12.6 µg/mL) | 1.87 | 15 (≈ 6.08 µg/mL) | 52.6 | 31 (≈ 12.6 µg/mL) | 31 (≈ 12.6 µg/mL) | 197 | 24.7 | 25 (≈ 61.7 µM) | 50 (≈ 123 µM) | > 50 | > 50 | > 50 | 31 (≈ 12.6 µg/mL) | MBC (B. subtilis [20]; [26]): > 50 µg/mL
8 | Cc1ccc(NC(=O)CSc2nc3ccccc3n2C(=O)c2ccccc2)cc1 [Compound 12, 2-(1-Benzoyl-1H-benzo[d]imidazol-2-ylthio)-N-p-tolylacetamide] | 25 (≈ 62.3 µM) | > 50 | 31 (≈ 12.4 µg/mL) | > 20 | 12.5 (≈ 31.1 µM) | 31 (≈ 12.4 µg/mL) | 31 (≈ 12.4 µg/mL) | 1.85 | 16 (≈ 6.42 µg/mL) | 43.5 | 31 (≈ 12.4 µg/mL) | 31 (≈ 12.4 µg/mL) | 39.8 | 124 | 25 (≈ 62.3 µM) | 50 (≈ 125 µM) | > 50 | > 50 | 50 (≈ 125 µM) | 31 (≈ 12.4 µg/mL) | MBC (B. subtilis [20]; [26]): > 50 µg/mL
9 | O=C(CSc1nc2ccccc2n1C(=O)c1ccccc1)Nc1ccccc1F [Compound 2, 2-(1-Benzoyl-1H-benzo[d]imidazol-2-ylthio)-N-(2-fluorophenyl)acetamide] | 50 (≈ 123 µM) | > 50 | 31 (≈ 12.6 µg/mL) | > 20 | 12.5 (≈ 30.8 µM) | 31 (≈ 12.6 µg/mL) | 31 (≈ 12.6 µg/mL) | 1.81 | 15 (≈ 6.08 µg/mL) | 58.8 | 31 (≈ 12.6 µg/mL) | 31 (≈ 12.6 µg/mL) | 83.9 | 4.7 | 25 (≈ 61.7 µM) | 50 (≈ 123 µM) | > 50 | > 50 | 50 (≈ 123 µM) | 31 (≈ 12.6 µg/mL) | MBC (B. subtilis [20]; [26]): 50 µg/mL (≈ 123 µM)
